What all share (format): cell-based
Experiment [1] deals with Lactobacillus salivarius Ls-33 (LS-30). The experiment can be described thus: Growth (turbidity) and lactic acid producing activity in MRS broth, L. salivarius Ls-33. The note with it: for pH: 0.1% in MRS (polysorbate 80 1.0 g/liter). The procedure:
(§1) Each flask was tempered to 37° C. and aseptically inoculated with 0.14 gm of the individual probiotic strains (in Examples 5 to 10 below) to be tested. At specified time intervals, a 30 ml sample from each flask was aseptically transferred into a HACH […] Turbidimeter sample cell. The turbidity of each sample was read and the results were reported in NTU's. The same 30 ml sample used for the turbidity reading was transferred into a 250 ml glass beaker, and the pH was recorded. The sample was titrated using 0.1N NaOH to an endpoint of pH 6.8, and the quantity of NaOH used was recorded. The % Lactic Acid was calculated using the following formula: % Lactic Acid=((mls of 0.1N NaOH)×(0.1N)×(90 gm/mole)×(1 L/1000 ml))×100 mls of sample % Lactic Acid=(mls of 0.1N NaOH)×(0.9) (Results reported at 12 hours and 23 hours like: 12/23 in Table V below)

In experiment [2] the test system is Lactobacillus acidophilus NCFM (LA-1). Description: Growth (turbidity) and lactic acid producing activity in MRS broth, L. acidophilus NCFM. The settings on record: for pH: 0.1% in MRS (polysorbate 80 1.0 g/liter). As to the method:
as §1, with “At” for “Each flask was tempered to 37° C. and aseptically inoculated with 0.14 gm of the individual probiotic strains (in Examples 5 to 10 below) to be tested. At”, “I” for “V”

Experiment [3] deals with THERALAC® Lot #32310A probiotic strains. Description: Growth of the commercial probiotic […] in MRS broth (turbidity, lactic acid, pH). The note with it: for pH: 0.1% in MRS (polysorbate 80 1.0 g/liter). The procedure: MRS broth was prepared with (for controls) and without (for tests) polysorbate 80 and filled into 1 liter screw cap flasks at 500 ml each and autoclaved at 121° C. for 30 minutes. Various lecithin and/or oleic acid additives, or nothing (negative control), was added to the tests flasks prior to autoclaving. The flasks were then tempered to 37° C. in a water bath and inoculated at 0.1% with […]® Lot #32310A, a commercial probiotic product (Master Supplements, Inc., Victoria, Minn.). Capsules of […]® were opened and the contents mixed aseptically to serve as the inoculum source. At an inoculation rate of 0.1%, approximately 80 million CFU was added per ml of MRS media. […]® contains (formulation strength) the following probiotic strains at the approximate CFU values listed per gram: Turbidity, pH and titrations (made with 0.1 N NaOH and reported as % lactic acid) were made at various times up to 23 hours. The results are presented below in Table VI for the 12 and 23-hour analyses.

Experiment [4] relates to Lactobacillus rhamnosus Lr-32 (LR-44). Description: Growth (turbidity) and lactic acid producing activity in MRS broth, L. rhamnosus Lr-32. The settings on record: for pH: 0.1% in MRS (polysorbate 80 1.0 g/liter). The procedure: as §1, with “IV” for “V”
Experiment [5] concerns Lactobacillus paracasei Lpc-37 (F-19). Description: Growth (turbidity) and lactic acid producing activity in MRS broth, L. paracasei Lpc-37. The procedure: as §1, with “III” for “V”
Experiment [6] deals with Bifidobacterium lactis Bl-04 (BL-34). The experiment can be described thus: Growth (turbidity) and lactic acid producing activity in MRS broth, B. lactis Bl-04. The note with it: 0.1% in MRS (polysorbate 80 1.0 g/liter). As to the method:
as §1, with “II” for “V”

The mark [7] stands for this setting: 0.1% in MRS (polysorbate 80 1.0 g/liter), 12 hours.

For the compound `CCCCCCCC/C=C\CCCCCCCC(=O)O` [Oleic Acid, oleic acid], the “effectiveness as polysorbate 80 replacement, in words” value in experiment [1] (0.1% inclusion rate in MRS) was “not as good a replacement as a lag phase is apparent at 12 hours”; in experiment [3] (0.1% inclusion rate in MRS) it was “acceptable replacement value for polysorbate 80 but is not as effective as either of the lecithins”; in experiment [4] (0.1% inclusion rate in MRS), “shows an improvement over no polysorbate 80 on the 23-hour test but shows a significant lag phase at 12 hours; it is not as good a replacement for polysorbate 80 as sunflower lecithin”; in experiment [5] (0.1% inclusion rate in MRS) it was “shows an improvement over no polysorbate 80 but is not as effective a replacement for polysorbate 80 as sunflower lecithin”. In experiment [2] (0.1% inclusion rate in MRS), the “effectiveness as polysorbate 80 replacement (growth and lactic acid production), in words” value was “somewhat effective as a polysorbate 80 replacement but not as effective as either sunflower or soy lecithin”.

Consider polysorbate 80, for which the pH in experiment [1] (12 hours) is 3.8; in experiment [1] (23 hours), 3.7; in experiment [2] (12 hours) it was 4.2; in experiment [2] (23 hours) it was 4.1; in experiment [3] (12 hours), 3.9; in experiment [3] (23 hours) it was 3.7. In addition, the pH in experiment [4] (12 hours) is recorded as 4.0; in experiment [4] (23 hours), 3.7; in experiment [6] (12 hours), 4.8; in experiment [6] (23 hours), 4.5; in experiment [5] (setting [7]), 4.2; in experiment [5] (0.1% in MRS (polysorbate 80 1.0 g/liter), 23 hours) it was 3.9. Moreover, the results for the “Lactic Acid %” value in experiment [6] (12 hours), in experiment [6] (23 hours) and in experiment [5] (setting [7]) were 0.57%, 0.84% and 0.99%, respectively.

Values taken from patent US8105577B1, “Prebiotic composition for increasing probiotic growth rate and activity” (Master Supplements, Inc., priority 2010, dated 2012).
